Reference: the NIST ThermoML archive (doi:10.1021/je1005196)

Legend:
[1] = xn = mol fraction of the nth substance listed; details: 308.15 K, 101 kPa, Liquid; for excess molar volume: Direct dilatometry; for speed of sound: Linear variable-path acoustic interferometer
[2] = excess molar enthalpy (molar enthalpy of mixing); xn = mol fraction of the nth substance listed; details: 308.15 K, 101 kPa, Liquid, Calvet calorimetry
[3] = Liquid; for speed of sound / mass density: 101.33 kPa; for speed of sound: Linear variable-path acoustic interferometer; for mass density: Pycnometric method

Cc1ccccc1N [2-methylaniline] + C1CCOCC1
Details | excess molar enthalpy [kcal/mol] | excess molar volume [m3/mol] | speed of sound [m/s]
[1], x2 = 0.0832 | – | – | 1535
[1], x2 = 0.1451 | – | – | 1505
[1], x2 = 0.1881 | – | -3.94e-07 | –
[1], x2 = 0.2102 | – | – | 1475
[1], x2 = 0.2321 | – | -4.57e-07 | –
[1], x2 = 0.2918 | – | – | 1441
[1], x2 = 0.2967 | – | -5.47e-07 | –
[1], x2 = 0.3245 | – | -5.75e-07 | –
[1], x2 = 0.3581 | – | – | 1414
[1], x2 = 0.3834 | – | -6.36e-07 | –
[1], x2 = 0.4002 | – | – | 1399
[1], x2 = 0.4704 | – | -7.08e-07 | –
[1], x2 = 0.4981 | – | – | 1364
[1], x2 = 0.5181 | – | -7.32e-07 | –
[1], x2 = 0.5423 | – | -7.37e-07 | –
[1], x2 = 0.5638 | – | – | 1343
[1], x2 = 0.6112 | – | -7.45e-07 | –
[1], x2 = 0.6118 | – | – | 1328
[1], x2 = 0.6877 | – | -7.22e-07 | –
[1], x2 = 0.7148 | – | – | 1299
[1], x2 = 0.7414 | – | -6.82e-07 | –
[1], x2 = 0.7981 | – | – | 1277
[1], x2 = 0.8213 | – | -5.66e-07 | –
[1], x2 = 0.8412 | – | – | 1267
[1], x2 = 0.8974 | – | -3.81e-07 | –
[1], x2 = 0.9003 | – | – | 1253
[1], x2 = 0.9426 | – | -2.35e-07 | –
[1], x2 = 0.9628 | – | – | 1240
[2], x2 = 0.0701 | -0.0286 | – | –
[2], x2 = 0.1765 | -0.0678 | – | –
[2], x2 = 0.2379 | -0.0874 | – | –
[2], x2 = 0.295 | -0.103 | – | –
[2], x2 = 0.3344 | -0.113 | – | –
[2], x2 = 0.3911 | -0.124 | – | –
[2], x2 = 0.435 | -0.137 | – | –
[2], x2 = 0.4901 | -0.137 | – | –
[2], x2 = 0.5521 | -0.139 | – | –
[2], x2 = 0.6276 | -0.136 | – | –
[2], x2 = 0.6982 | -0.126 | – | –
[2], x2 = 0.741 | -0.117 | – | –
[2], x2 = 0.8546 | -0.0792 | – | –
[2], x2 = 0.9201 | -0.048 | – | –

CNc1ccccc1 [N-methylaniline]
[3]
Details | mass density [kg/m3] | speed of sound [m/s] | vapor or sublimation pressure [kPa]
298.15 K | 982.4 | 1572 | –
308.15 K | – | – | 0.1067

Details | vapor or sublimation pressure [kPa]
[3], 298.15 K, Closed cell (Static) method | 0.0667

Nc1ccccc1 [aniline]
[3]
Details | mass density [kg/m3] | speed of sound [m/s] | vapor or sublimation pressure [kPa]
298.15 K | 1017.2 | 1635 | –
308.15 K | – | – | 0.12

Details | vapor or sublimation pressure [kPa]
[3], 298.15 K, Closed cell (Static) method | 0.0933

Cc1ccccc1N [2-methylaniline]
[3]
Details | mass density [kg/m3] | speed of sound [m/s] | vapor or sublimation pressure [kPa]
298.15 K | 994.2 | 1602 | –
308.15 K | – | – | 0.0667

Details | vapor or sublimation pressure [kPa]
[3], 298.15 K, Closed cell (Static) method | 0.04

Nc1ccccc1 [aniline] + C1CCOCC1
Details | excess molar enthalpy [kcal/mol] | excess molar volume [m3/mol] | speed of sound [m/s]
[1], x2 = 0.0702 | – | -9.7e-08 | –
[1], x2 = 0.0912 | – | – | 1564
[1], x2 = 0.1516 | – | – | 1543
[1], x2 = 0.1767 | – | -2.45e-07 | –
[1], x2 = 0.2381 | – | -3.22e-07 | –
[1], x2 = 0.2414 | – | – | 1510
[1], x2 = 0.2952 | – | -3.84e-07 | –
[1], x2 = 0.299 | – | – | 1490
[1], x2 = 0.3347 | – | -4.2e-07 | –
[1], x2 = 0.3541 | – | – | 1470
[1], x2 = 0.3913 | – | -4.59e-07 | –
[1], x2 = 0.4354 | – | -4.8e-07 | –
[1], x2 = 0.4417 | – | – | 1438
[1], x2 = 0.4904 | – | -4.92e-07 | –
[1], x2 = 0.5312 | – | – | 1404
[1], x2 = 0.5525 | – | -4.87e-07 | –
[1], x2 = 0.5943 | – | – | 1379
[1], x2 = 0.628 | – | -4.56e-07 | –
[1], x2 = 0.6511 | – | – | 1357
[1], x2 = 0.6989 | – | -4.01e-07 | –
[1], x2 = 0.7344 | – | – | 1324
[1], x2 = 0.7412 | – | -3.59e-07 | –
[1], x2 = 0.8117 | – | – | 1294
[1], x2 = 0.8548 | – | -2.15e-07 | –
[1], x2 = 0.883 | – | – | 1267
[1], x2 = 0.9204 | – | -1.19e-07 | –
[1], x2 = 0.9413 | – | – | 1245
[1], x2 = 0.9812 | – | – | 1231
[2], x2 = 0.0545 | -0.02 | – | –
[2], x2 = 0.1711 | -0.0599 | – | –
[2], x2 = 0.2234 | -0.0767 | – | –
[2], x2 = 0.2761 | -0.0929 | – | –
[2], x2 = 0.3509 | -0.114 | – | –
[2], x2 = 0.4214 | -0.132 | – | –
[2], x2 = 0.5512 | -0.155 | – | –
[2], x2 = 0.5879 | -0.158 | – | –
[2], x2 = 0.6213 | -0.159 | – | –
[2], x2 = 0.6821 | -0.157 | – | –
[2], x2 = 0.7511 | -0.147 | – | –
[2], x2 = 0.8145 | -0.128 | – | –
[2], x2 = 0.8914 | -0.0893 | – | –
[2], x2 = 0.9413 | -0.0539 | – | –

C1CCOCC1 [tetrahydropyran]
[3]
Details | mass density [kg/m3] | vapor or sublimation pressure [kPa]
298.15 K | 868.6 | –
308.15 K | – | 13.79

Details | vapor or sublimation pressure [kPa]
[3], 298.15 K, Closed cell (Static) method | 9.533

CNc1ccccc1 [N-methylaniline] + C1CCOCC1
Details | excess molar enthalpy [kcal/mol] | excess molar volume [m3/mol] | speed of sound [m/s]
[1], x2 = 0.0541 | – | – | 1509
[1], x2 = 0.0764 | – | -7.2e-08 | –
[1], x2 = 0.1321 | – | – | 1490
[1], x2 = 0.1416 | – | -1.25e-07 | –
[1], x2 = 0.1921 | – | -1.59e-07 | –
[1], x2 = 0.2316 | – | – | 1468
[1], x2 = 0.244 | – | -1.89e-07 | –
[1], x2 = 0.2811 | – | – | 1457
[1], x2 = 0.2905 | – | -2.1e-07 | –
[1], x2 = 0.3451 | – | -2.27e-07 | –
[1], x2 = 0.3612 | – | – | 1437
[1], x2 = 0.3984 | – | -2.37e-07 | –
[1], x2 = 0.4112 | – | – | 1424
[1], x2 = 0.4515 | – | -2.4e-07 | –
[1], x2 = 0.4932 | – | – | 1400
[1], x2 = 0.5224 | – | -2.34e-07 | –
[1], x2 = 0.5638 | – | – | 1377
[1], x2 = 0.613 | – | -2.1e-07 | –
[1], x2 = 0.6148 | – | – | 1360
[1], x2 = 0.6873 | – | -1.78e-07 | –
[1], x2 = 0.6919 | – | – | 1332
[1], x2 = 0.7418 | – | – | 1313
[1], x2 = 0.7531 | – | -1.44e-07 | –
[1], x2 = 0.8141 | – | – | 1287
[1], x2 = 0.8231 | – | -1.03e-07 | –
[1], x2 = 0.8992 | – | – | 1257
[1], x2 = 0.9191 | – | -4.5e-08 | –
[1], x2 = 0.9514 | – | – | 1239
[2], x2 = 0.0856 | -0.0264 | – | –
[2], x2 = 0.1321 | -0.0407 | – | –
[2], x2 = 0.1976 | -0.06 | – | –
[2], x2 = 0.2434 | -0.0727 | – | –
[2], x2 = 0.3122 | -0.0899 | – | –
[2], x2 = 0.3876 | -0.105 | – | –
[2], x2 = 0.4444 | -0.114 | – | –
[2], x2 = 0.4878 | -0.119 | – | –
[2], x2 = 0.5548 | -0.122 | – | –
[2], x2 = 0.6233 | -0.121 | – | –
[2], x2 = 0.6921 | -0.113 | – | –
[2], x2 = 0.7432 | -0.104 | – | –
[2], x2 = 0.8767 | -0.0624 | – | –
[2], x2 = 0.9549 | -0.0256 | – | –
